Experimental data: US8618151B2, “Inhibitors of HCV NS5A” (Presidio Pharmaceuticals, Inc., priority 2008, dated 2013)

Test system: HCV genotype 1b replicon
Assay: HCV replicon assay (1b_Huh-Luc/Neo-ET cell line, luciferase readout)
Assay type: cell-based
Conditions: Hepatitis C virus, Huh-7, 72 h, read-out: Inhibition of HCV genotype 1b
Summary of the method: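 1b_Huh-Luc/Neo-ET Huh 7 cells carrying a bicistronic genotype 1b replicon; compounds added in triplicate the day after plating, 72 h incubation, then Bright-Glo luciferase read-out. Signal expressed as % of control; EC50 from curve fit, repeated several times.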

SMILES | EC50
COC(=O)N[C@H](C(=O)N1CCC[C@H]1c1nc2ccc(-c3ccc4nc(-c5ccc6nc([C@@H]7CCCN7C(=O)[C@@H](NC(=O)OC)C(C)C)[nH]c6c5)ccc4c3)cc2[nH]1)C(C)C [compound 280] | < 1 nM
COC(=O)N[C@H](C(=O)N1CCC[C@H]1c1nc2ccc(-c3ccc4cc(-c5ccc6nc([C@@H]7CCCN7C(=O)[C@@H](NC(=O)OC)C(C)C)[nH]c6c5)ncc4c3)cc2[nH]1)C(C)C [compound 281] | < 1 nM
COC(=O)N[C@H](C(=O)N1CCC[C@H]1c1nc2ccc(-c3ccc4cc(-c5ccc6nc([C@@H]7CCCN7C(=O)[C@@H](NC(=O)OC)C7CCOCC7)[nH]c6c5)ccc4c3)cc2[nH]1)C(C)C [compound 282] | < 1 nM
COC(=O)N[C@H](C(=O)N1CCC[C@H]1c1nc2ccc(-c3ccc4cc(-c5ccc6nc([C@@H]7CCCN7C(=O)[C@H](NC(=O)OC)c7ccccc7)[nH]c6c5)ccc4c3)cc2[nH]1)C(C)C [compound 283] | < 1 nM
COC(=O)N[C@@H](C(=O)N1CCC[C@H]1c1nc(-c2ccc3nc(C4CCC(c5cnc([C@@H]6CCCN6C(=O)[C@H](NC(=O)OC)c6ccccc6)[nH]5)CC4)ccc3c2)c[nH]1)c1ccccc1 (stereo partly drawn) [compound 286] | < 1 nM
COC(=O)N[C@H](C(=O)N1CCC[C@H]1c1nc(-c2ccc3c(=O)n(-c4ccc(-c5cnc([C@@H]6CCCN6C(=O)[C@@H](NC(=O)OC)C(C)C)[nH]5)cc4)ccc3c2)c[nH]1)C(C)C [compound 287] | < 1 nM
COC(=O)N[C@@H](C(=O)N1CCC[C@H]1c1nc(-c2ccc3c(=O)n(-c4ccc(-c5cnc([C@@H]6CCCN6C(=O)[C@H](NC(=O)OC)c6ccccc6)[nH]5)cc4)ccc3c2)c[nH]1)c1ccccc1 [compound 288] | < 1 nM
COC(=O)N[C@@H](C(=O)N1CCC[C@H]1c1nc(-c2ccc3c(c2)CCN(c2ccc(-c4cnc([C@@H]5CCCN5C(=O)[C@H](NC(=O)OC)c5ccccc5)[nH]4)cc2)C3=O)c[nH]1)c1ccccc1 [compound 289] | < 1 nM
COC(=O)N[C@H](C(=O)N1CCC[C@H]1c1ncc(-c2ccc(N3Cc4cc(-c5cnc([C@@H]6CCCN6C(=O)[C@@H](NC(=O)OC)C(C)C)[nH]5)ccc4C3=O)cc2)[nH]1)C(C)C [compound 290] | < 1 nM
COC(=O)N[C@H](C(=O)N1CCC[C@H]1c1nc(C2CNc3cc(-c4ccc(-c5cnc([C@@H]6CCCN6C(=O)[C@H](NC(=O)OC6CCOCC6)c6ccccc6)[nH]5)cc4)ccc3C2)c[nH]1)C(C)C (stereo partly drawn) [compound 291] | < 1 nM
COC(=O)N[C@H](C(=O)N1CCC[C@H]1c1ncc(-c2ccc3cc(-c4ccc5c(c4)CCc4nc([C@@H]6CCCN6C(=O)[C@@H](NC(=O)OC)C(C)C)[nH]c4-5)ncc3c2)[nH]1)C(C)C [compound 292] | < 1 nM
COC(=O)N[C@H](C(=O)N1CCC[C@H]1c1nc2c([nH]1)-c1ccc(-c3cc4ccc(-c5cnc([C@@H]6CCCN6C(=O)[C@@H](NC(=O)OC)C6CCOCC6)[nH]5)cc4cn3)cc1CC2)C(C)C [compound 293] | < 1 nM
COC(=O)N[C@H](C(=O)N1CCC[C@H]1c1nc2c([nH]1)-c1ccc(-c3cc4ccc(-c5cnc([C@@H]6CCCN6C(=O)[C@H](NC(=O)OC)c6ccccc6)[nH]5)cc4cn3)cc1CC2)C(C)C [compound 294] | < 1 nM
COC(=O)N[C@H](C(=O)N1CCC[C@H]1c1nc2c([nH]1)-c1ccc(-c3cc4ccc(-c5cnc([C@@H]6CCCN6C(=O)[C@H](NC(=O)OC6CCOCC6)c6ccccc6)[nH]5)cc4cn3)cc1CC2)C(C)C [compound 295] | < 1 nM
COC(=O)N[C@H](C(=O)N1CCC[C@H]1c1ncc(-c2ccc3nc(-c4ccc5c(ccc6nc([C@@H]7CCCN7C(=O)[C@@H](NC(=O)OC)C(C)C)[nH]c65)c4)ccc3c2)[nH]1)C(C)C [compound 296] | < 1 nM
COC(=O)N[C@H](C(=O)N1CCC[C@H]1c1nc2ccc3cc(-c4ccc5cc(-c6cnc([C@@H]7CCCN7C(=O)[C@@H](NC(=O)OC)C7CCOCC7)[nH]6)ccc5n4)ccc3c2[nH]1)C(C)C [compound 297] | < 1 nM
COC(=O)N[C@H](C(=O)N1CCC[C@H]1c1nc2ccc3cc(-c4ccc5cc(-c6cnc([C@@H]7CCCN7C(=O)[C@H](NC(=O)OC)c7ccccc7)[nH]6)ccc5n4)ccc3c2[nH]1)C(C)C [compound 298] | < 1 nM
COC(=O)N[C@H](C(=O)N1CCC[C@H]1c1nc2ccc3cc(-c4ccc5cc(-c6cnc([C@@H]7CCCN7C(=O)[C@H](NC(=O)OC7CCOCC7)c7ccccc7)[nH]6)ccc5n4)ccc3c2[nH]1)C(C)C [compound 299] | < 1 nM
